≈ marks a conversion by molar mass, not a printed value. Calls of active or inactive are those of the source. No cut-off for these calls is given here.
Assays:
[1] = test system: Mycobacterium tuberculosis; assay: Antimycobacterial activity against wild type Mycobacterium tuberculosis H37Rv assessed as inhibition of bacterial growth incubated for 7 days by resazurin microplate assay; assay type: functional; conditions: 168 h, time 7 day
[2] = test system: Mycobacterium tuberculosis; assay: (§1) Inhibition of wild type Mycobacterium tuberculosis H37Rv cytochrome bd oxidase assessed as reduction in total cellular ATP level by measuring relative luminescence unit at 32 uM incubated for 15 hrs by BacTiter-Glo microbial cell viability reagent based bioluminescence assay relative to control (Rvb= 13.73%)
[3] = test system: Mycobacterium tuberculosis; assay: Synergistic bactericidal activity against wild type Mycobacterium tuberculosis H37Rv under hypoxia condition assessed as reduction in log10 CFU at 32 uM incubated for 3 days in presence of Q203 by Methylene blue dye based CFU assay; assay type: functional; conditions: time 3 day
[4] = test system: Mycobacterium tuberculosis; assay: Inhibition of wild type Mycobacterium tuberculosis H37Rv cytochrome bd oxidase assessed as inhibition of oxygen consumption at 16 to 64 uM and measured for 20 days in presence of Q203 by Methylene blue dye based assay; conditions: dose 16-64 µM, time 20.0 day
[5] = test system: Mycobacterium tuberculosis; assay: as §1, with “hrs in presence of Q203” for “hrs”
[6] = test system: Mycobacterium tuberculosis; assay: Inhibition of wild type Mycobacterium tuberculosis H37Rv cytochrome bd oxidase assessed as inhibition of oxygen consumption at 16 to 64 uM and measured after 5 days by Methylene blue dye based assay; conditions: dose 16-64 µM, time 5.0 day
[7] = test system: Mycobacterium tuberculosis; assay: Synergistic antimycobacterial activity against wild type Mycobacterium tuberculosis H37Rv assessed as fractional inhibitory concentration index incubated for 7 days in presence of Q203 by checkboard format based resazurin microplate assay; assay type: functional; conditions: time 7 day
[8] = test system: Mycobacterium tuberculosis; assay: Bactericidal activity against wild type Mycobacterium tuberculosis H37Rv under hypoxia condition assessed as reduction in log10 CFU at 32 uM incubated for 3 days by Methylene blue dye based CFU assay; assay type: functional; conditions: time 3 day
[9] = test system: Mycobacterium tuberculosis; assay: Bactericidal activity against wild type Mycobacterium tuberculosis H37Rv under hypoxia condition assessed as reduction in log10 CFU at 0.5 ug/ml incubated for 3 days by Methylene blue dye based CFU assay; assay type: functional, organism-based; conditions: dose 0.5 µg/ml, time 3.0 day
[10] = test system: Mycobacterium tuberculosis; assay: Bactericidal activity against wild type Mycobacterium tuberculosis H37Rv under hypoxia condition assessed as reduction in log10 CFU at 0.5 uM incubated for 3 days by Methylene blue dye based CFU assay; assay type: functional; conditions: time 3 day
[11] = test system: Mycobacterium tuberculosis; assay: Bactericidal activity against wild type Mycobacterium tuberculosis H37Rv under hypoxia condition assessed as reduction in log10 CFU at 0.03 uM incubated for 3 days by Methylene blue dye based CFU assay; assay type: functional; conditions: time 3 day
[12] = test system: Mycobacterium tuberculosis; assay: as §1, with “0.1” for “32”
[13] = test system: Mycobacterium tuberculosis; assay: Inhibition of wild type Mycobacterium tuberculosis H37Rv cytochrome bd oxidase assessed as inhibition of oxygen consumption at 0.1 uM and measured after 5 days by Methylene blue dye based assay; conditions: time 5.0 day

Compound	MIC [1]	further results
O=C(Cn1cnc2ccccc2c1=O)Nc1ccc([N+](=O)[O-])cc1	> 32 µM	–
O=C(COc1ncnc2ccccc12)Nc1ccc(Cl)cc1	256 µM (≈ 80.3 µg/mL)	inhibition [2]: 22.8%; Activity [3]: 4 log10CFU; inhibition [4]: Active; inhibition [5]: 91.2%; inhibition [6]: inactive; fractional inhibitory concentration index (FICI) [7]: 0.375; Activity [8]: 1.9 log10CFU
COc1ccc(NC(=O)COc2ncnc3ccccc23)cc1	> 32 µM	–
O=C(Cn1cnc2ccccc2c1=O)Nc1ccc(OC(F)(F)F)cc1	> 32 µM	–
O=C(COc1ncnc2ccccc12)Nc1ccc(F)cc1	> 32 µM	–
Cc1ccccc1NC(=O)COc1ncnc2ccccc12	> 32 µM	–
Cc1ccc(NC(=O)COc2ncnc3ccccc23)cc1	> 32 µM	–
O=C(COc1ncnc2ccccc12)NCc1ccc(N2CCN(c3ccccc3)CC2)cc1	> 32 µM	–
CSc1ccc(NC(=O)Cn2cnc3ccccc3c2=O)cc1	> 32 µM	–
O=C(COc1ncnc2ccccc12)NCc1ccc(N2CCN(Cc3ccccc3)CC2)cc1	> 32 µM	–
COc1ccccc1NC(=O)Cn1cnc2ccccc2c1=O	> 32 µM	–
O=C(COc1ncnc2ccccc12)NCc1ccc(N2CCC(c3ccccc3)CC2)cc1	> 32 µM	–
O=C(Cn1cnc2ccccc2c1=O)Nc1ccccc1	> 32 µM	–
NNC(=O)c1ccncc1	–	Activity [9]: inactive
O=C(COc1ncnc2ccccc12)Nc1ccc(Br)cc1	> 32 µM	–
O=C(COc1ncnc2ccccc12)Nc1ccccc1	128 µM (≈ 35.8 µg/mL)	inhibition [2]: 7%; Activity [3]: 4 log10CFU; inhibition [4]: Active; inhibition [5]: 89.8%; inhibition [6]: inactive; fractional inhibitory concentration index (FICI) [7]: 1.062; Activity [8]: 1.9 log10CFU

Compound	MIC [1]	further results
Cc1ccc(NC(=O)Cn2cnc3ccccc3c2=O)cc1	> 32 µM	–
O=C(COc1ncnc2ccccc12)Nc1ccc(OC(F)(F)F)cc1	> 32 µM	–
O=C(COc1ncnc2ccccc12)Nc1ccc(C(F)(F)F)cc1	> 32 µM	–
O=C(COc1ncnc2ccccc12)NCc1ccc(N2CCN(c3ccc(F)cc3)CC2)cc1	> 32 µM	–
O=C(COc1ncnc2ccccc12)Nc1cccc2ccccc12	> 32 µM	–
COc1nc2ccc(Br)cc2cc1[C@@H](c1ccccc1)[C@@](O)(CCN(C)C)c1cccc2ccccc12 [BEDAQUILINE]	–	Activity [10]: 2.3 log10CFU
O=C(Cn1cnc2ccccc2c1=O)Nc1ccc(Br)cc1	> 32 µM	–
O=C(Cn1cnc2ccccc2c1=O)Nc1ccc(F)cc1	> 32 µM	–
O=C(Cn1cnc2ccccc2c1=O)Nc1ccc(Cl)cc1	> 32 µM	–
O=C(COc1ncnc2ccccc12)NCc1ccccc1	> 32 µM	–
O=C(Cn1cnc2ccccc2c1=O)Nc1ccc(C(F)(F)F)cc1	> 32 µM	–
CCc1nc2ccc(Cl)cn2c1C(=O)NCc1ccc(N2CCC(c3ccc(OC(F)(F)F)cc3)CC2)cc1 [TELACEBEC]	0.016 µM (≈ 0.00891 µg/mL)	Activity [11]: 0.8 log10CFU; inhibition [12]: 33.4%; inhibition [13]: inactive
COc1ccc(N2CCN(c3ccc(CNC(=O)COc4ncnc5ccccc45)cc3)CC2)cc1	> 32 µM	–
O=C(Cn1cnc2ccccc2c1=O)NC1=C(C(F)(F)F)CCC=C1	> 32 µM	–
COc1ccccc1NC(=O)COc1ncnc2ccccc12	> 32 µM	–
COc1ccc(NC(=O)Cn2cnc3ccccc3c2=O)cc1	> 32 µM	–

Reference: ChEMBL document CHEMBL5352390, “Design, synthesis and biological evaluation of (Quinazoline 4-yloxy)acetamide and (4-oxoquinazoline-3(4H)-yl)acetamide derivatives as inhibitors of Mycobacterium tuberculosis bd oxidase” (2022)
